Series [1] addresses T1, Glucosylceramide synthase (GCS) (Canis lupus familiaris, UniProt A0A8I3MXG6).
T1 construct: endogenous in cells; host or cells: MDCK cell lysate
T1 sequence (A0A8I3MXG6 1-394): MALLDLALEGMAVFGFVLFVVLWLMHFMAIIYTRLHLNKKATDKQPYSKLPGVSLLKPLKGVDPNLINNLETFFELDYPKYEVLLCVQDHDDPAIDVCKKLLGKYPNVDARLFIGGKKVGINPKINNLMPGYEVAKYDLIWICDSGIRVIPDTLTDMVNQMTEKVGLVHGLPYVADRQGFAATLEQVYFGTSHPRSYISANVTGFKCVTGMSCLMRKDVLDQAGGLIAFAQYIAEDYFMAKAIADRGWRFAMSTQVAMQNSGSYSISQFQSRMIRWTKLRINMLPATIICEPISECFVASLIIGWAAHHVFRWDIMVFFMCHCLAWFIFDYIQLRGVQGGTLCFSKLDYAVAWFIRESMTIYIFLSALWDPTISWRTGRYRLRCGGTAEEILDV
The experiment in a line: Glucosylceramide synthase assay. Type of series: biochemical. The note with it: MDCK cell lysate. Here is the method:
Modified from Larsen et al.[46]. Briefly, 60 μg of MDCK cell lysate was incubated with […] in 100 mM Tris buffer (pH 7.5), 10 mM MgCl2, 1 mM dithiothreitol, 1 mM EGTA, 2 mM NAD, 100 μM UDP-glucose, 10 μM C6-NBD-Ceramide (Matreya), 35 μM DOPC, and 5 μM sulfatide (Sigma) at 37 °C for 1 h. The reaction was stopped with equal volume of acetonitrile and 50 μL was added to 100 μL of acetonitrile containing 100 ng/mL tolbutamide IS and centrifuged. Next, 70 μL of supernatant was mixed with 140 μL H2O before LC-MS analysis. NBD-Glucosylceramide quantification was performed on a Shimadzu ultra-fast liquid chromatography system (Shimadzu) coupled with an API 4000 triple quadrupole mass spectrometer in ESI positive mode (Applied Biosystems) and a Xbridge BEH130 CI 8, 100 mm × 4.6 mm i.d, 3.5 μm column (Waters). The mobile phase consisted of water and acetonitrile supplemented with 0.1% formic acid (v/v).

A short description of series [2]: Mouse pharmacokinetics and brain concentration. Type of series: in vivo. The note with it: C57BL/6 mice, single 20 mg/kg IP injection, plasma. On the procedure:
Blood was collected in K2 EDTA tube to obtain a plasma sample (2000g, 5 min at 4 °C). The brain was removed, rinsed with cold saline, dried on filter paper, weighed, and snap frozen by placing on dry ice. Brains were homogenized in 3 volumes of PBS (pH 7.4) by mini-bead-beater before sample extraction for bioanalysis. […] Pharmacokinetic parameters were calculated using WinNonlin V 8.2 statistics software (Pharsight Corporation).

The subject of series [3] is sulfatide and lysosulfatide levels. The experiment in a line: ARSA knockout (MLD) mouse brain sulfatide and lysosulfatide analysis. It counts as in vivo. The note with it: MLD (ARSA knockout) mice, IP three times per week. Here is the method: ARSA mice were obtained from Volkmar Gieselmann, University of Bonn. ARSA −/− mice were generated from heterozygous pairing and confirmed by PCR genotyping. […] Animals were euthanized by exsanguination under deep anesthesia and brain and sciatic nerve removed, rinsed in cold saline, dried, and snap frozen for lipid quantification.
Previously diluted brain homogenate was serially diluted (10 µL into 90 µL and then 20 µL into 80 µL) in ACN/H2O (v/v 1:1) before being added to 300 µL ACN with IS (N-C18:0-CD3-sulfatide, Matreya). The mixture was vortexed for 10 min, centrifuged at 5800 rpm for 10 min, and then 3 µL of supernatant was injected for LC–MS/MS analysis. Sulfatides were separated on an ACE 5 C18 (2.1 × 50 mm, 5 µm) column (0.6 mL/min flow rate) at 60 °C using mobile phase A (H2O-5 mM NH4OAc) and mobile phase B (ACN). Non-hydroxy-sulfatide and 2-hydroxy-sulfatide were detected using MRM on a UPLC-MS/MS-22 (Triple Quad 6500) in positive ESI mode. Total sulfatides (Matreya) were used as reference standards. The non-hydroxy-sulfatide or 2-hydroxy-sulfatide species identified in the reference standards were each summed and normalized relative to the vehicle treated animals.
Sulfatides were quantified using the methods described above. For lysosulfatide, 30 µL of brain homogenates were added to 200 µL ACN with IS (N-acetylsulfatide, Matreya), vortexed for 10 min, and centrifuged at 5800 rpm for 10 min. 3 µL of supernatant was injected for LC–MS/MS analysis. UPLC–MS/MS methods were the same used for sulfatides described above except lysosulfatide (Matreya) was used as a reference standard.

Each structure is given as a SMILES string.

One molecule from article PMC8280112, “Substrate reduction therapy for Krabbe disease and metachromatic leukodystrophy using a novel ceramide galactosyltransferase inhibitor” (Scientific Reports, 2021) can be followed below.

A word on the IC50: it is the midpoint of a concentration-inhibition curve. Low values mean inhibition by little substance, high ones a need for much substance. Broadly, the AUC(0-inf) is the area under the concentration-time curve extrapolated to infinity. A higher AUC(0-inf) goes with more exposure. By AUC(0-t) is commonly meant exposure summed from dosing to a finite time, without extrapolation to infinity. A low value points to less exposure. The term Cmax denotes the peak of the concentration-time curve. As usually defined, the Tmax is the time at which the peak concentration occurs. In turn, `C[C@H]1N(c2ccc(Br)cc2)C(=O)N(c2ccc(Br)cc2)C1(O)c1cccc(OC(F)(F)F)c1` (stereo partly drawn) [S202] displayed an IC50 in series [1] of more than 50 µM. In addition, in series [2], the AUC(0-inf) was 83800 ng·h/mL, the AUC(0-t) came out at 59400 ng·h/mL, the concentration peaked (Cmax) at 8500 ng/mL and the Tmax was 1 h. For the same molecule, in series [2] (read-out: Terminal t1/2 (converted)), the half-life was 12.2 h. In addition, the 2-hydroxy-sulfatides in brain result in series [3] (higher doses) was “reduced”. In series [3] (lower doses), the lysosulfatide in brain entry was “reduction” and the non-hydroxy-sulfatide in brain entry was “reduction”.
